In ChEMBL document CHEMBL4715865, “Antimyeloma Potential of Caffeic Acid Phenethyl Ester and Its Analogues through Sp1 Mediated Downregulation of IKZF1-IRF4-MYC Axis” (J Nat Prod, 2020):
Calls of active or inactive are those of the source. The calls are words filed in the database; no cut-off is given here.

What was measured:
KMM-1 [1] = experiment: Growth inhibition of human KMM-1 cells at 1 to 10 uM after 48 hrs by PrestoBlue cell viability assay; assay type: functional, cell-based; conditions: dose 1-10 µM
[2] = Growth inhibition of human KMM-1 cells at 25 uM after 48 hrs by PrestoBlue cell viability assay relative to control; assay type: functional; conditions: read-out: GI
[3] = Growth inhibition of human KMM-1 cells at 50 uM after 48 hrs by PrestoBlue cell viability assay relative to control; assay type: functional; conditions: read-out: GI
KMM-1 [4] = experiment: Growth inhibition of human KMM-1 cells assessed as induction morphological changes at 25 to 50 uM after 48 hrs by phase contrast microscopic method; assay type: functional, cell-based; conditions: dose 25-50 µM
KMM-1 [5] = experiment: Growth inhibition of human KMM-1 cells at 1 to 100 uM after 72 hrs by PrestoBlue cell viability assay; assay type: functional, cell-based; conditions: dose 1-100 µM
A549 = experiment: Cytotoxicity against human A549 cells assessed as reduction in cell viability after 48 hrs by MTT assay; assay type: functional, cell-based; conditions: A549, 48 h
IMR-32 = experiment: Cytotoxicity against human IMR-32 cells assessed as reduction in cell viability after 48 hrs by MTT assay; assay type: functional, cell-based; conditions: IMR-32, 48 h
[6] = Cytotoxicity against human Mononuclear cells assessed as reduction in cll viability at 25 to 50 uM after 48 hrs by PrestoBlue cell viability assay; assay type: cell-based; conditions: mononuclear cell line, dose 25-50 µM
B cell [7] = experiment: Cytotoxicity against human naive B cells assessed as reduction in cll viability at 25 to 50 uM after 48 hrs by PrestoBlue cell viability assay; assay type: cell-based; conditions: dose 25-50 µM
[8] = Induction of apoptosis in human KMM-1 cells assessed as viable cells at 10 uM after 72 hrs by Annexin V/PropidiumIodide staining based flow cytometric analysis (reference value: 87 +/- 1%); assay type: functional; conditions: read-out: Activity
[9] = Induction of apoptosis in human KMM-1 cells assessed as early apoptotic cells at 10 uM after 72 hrs by Annexin V/PropidiumIodide staining based flow cytometric analysis (reference value: 1 +/- 0.4%); assay type: functional
[10] = Induction of apoptosis in human KMM-1 cells assessed as late apoptotic cells at 10 uM after 72 hrs by Annexin V/PropidiumIodide staining based flow cytometric analysis (reference value: 4 +/- 0.5%); assay type: functional
[11] = Induction of apoptosis in human KMM-1 cells assessed as necrotic cells at 10 uM after 72 hrs by Annexin V/PropidiumIodide staining based flow cytometric analysis (reference value: 8 +/-1%); assay type: functional
[12] = Induction of apoptosis in human KMM-1 cells assessed as viable cells at 25 uM after 72 hrs by Annexin V/PropidiumIodide staining based flow cytometric analysis (reference value: 87 +/- 1%); assay type: functional; conditions: read-out: Activity
[13] = Induction of apoptosis in human KMM-1 cells assessed as early apoptotic cells at 25 uM after 72 hrs by Annexin V/PropidiumIodide staining based flow cytometric analysis (reference value: 1 +/- 0.4%); assay type: functional
[14] = Induction of apoptosis in human KMM-1 cells assessed as late apoptotic cells at 25 uM after 72 hrs by Annexin V/PropidiumIodide staining based flow cytometric analysis (reference value: 4 +/- 0.5%); assay type: functional
[15] = Induction of apoptosis in human KMM-1 cells assessed as necrotic cells at 25 uM after 72 hrs by Annexin V/PropidiumIodide staining based flow cytometric analysis (reference value: 8 +/-1%); assay type: functional
KMM-1 [16] = experiment: Down regulation of IRF4 mRNA expression in human KMM-1 cells at 50 uM incubated for 48 hrs by 48 hrs by RT-PCR analysis; assay type: functional, cell-based
[17] = Down regulation of IRF4 protein expression in human KMM-1 cells at 50 uM incubated for 48 hrs by 48 hrs by immunoblotting analysis relative to control; assay type: functional
[18] = Growth inhibition of human KMM-1 cells after 48 hrs by PrestoBlue cell viability assay; assay type: functional, cell-based; conditions: KMM-1, 48 h
JJN-3 [19] = experiment: Growth inhibition of human JJN-3 cells after 48 hrs by PrestoBlue cell viability assay; assay type: functional, cell-based; conditions: JJN-3, 48 h
[20] = Growth inhibition of human MM1.R cells after 48 hrs by PrestoBlue cell viability assay; assay type: functional; conditions: MM.1R
[21] = Induction of apoptosis in human KMM-1 cells assessed as apoptotic cells at 10 uM after 72 hrs by Annexin V/PropidiumIodide staining based flow cytometric analysis relative to control; assay type: functional
[22] = Induction of apoptosis in human MM1.R cells assessed as apoptotic cells at 10 uM after 72 hrs by Annexin V/PropidiumIodide staining based flow cytometric analysis relative to control; assay type: functional, MM.1R
MM.1R [23] = experiment: Down regulation of SP1 protein expression in human MM1.R cells at 10 uM after 48 hrs by immunoblotting analysis; assay type: functional, cell-based
JJN-3 [24] = experiment: Down regulation of SP1 protein expression in human JJN-3 cells at 10 uM after 48 hrs by immunoblotting analysis; assay type: functional, cell-based
MM.1R [25] = experiment: Induction of apoptosis in human MM1.R cells assessed as increase in cleaved caspace-8 protein expression at 5 to 25 uM after 48 hrs by immunoblotting analysis; assay type: functional, cell-based; conditions: dose 5-25 µM
[26] = Cytotoxicity against human Mononuclear cells assessed as reduction in cll viability at 10 uM after 48 hrs by PrestoBlue cell viability assay; assay type: cell-based; conditions: mononuclear cell line
B cell [27] = experiment: Cytotoxicity against human naive B cells assessed as reduction in cll viability at 10 uM after 48 hrs by PrestoBlue cell viability assay; assay type: cell-based
[28] = Growth inhibition of human KMM-1 cells at 10 to 100 uM after 72 hrs by PrestoBlue cell viability assay relative to control; assay type: functional; conditions: dose 10-100 µM
[29] = (§1) Growth inhibition of human KMM-1 cells at 10 uM after 48 hrs by PrestoBlue cell viability assay relative to control; assay type: functional; conditions: read-out: GI
[30] = Growth inhibition of human MM1.R cells at 100 uM after 48 hrs by PrestoBlue cell viability assay relative to control; assay type: functional; conditions: MM.1R, read-out: GI
JJN-3 [31] = experiment: Down regulation of IRF4 protein expression in human JJN-3 cells at 10 to 50 uM after 48 hrs by immunoblotting analysis; assay type: functional, cell-based; conditions: dose 10-50 µM
JJN-3 [32] = experiment: Down regulation of IKZF1 protein expression in human JJN-3 cells at 10 to 50 uM after 48 hrs by immunoblotting analysis; assay type: functional, cell-based; conditions: dose 10-50 µM
MM.1R [33] = experiment: Down regulation of IRF4 protein expression in human MM1.R cells at 10 to 50 uM after 48 hrs by immunoblotting analysis; assay type: functional, cell-based; conditions: dose 10-50 µM
MM.1R [34] = experiment: Down regulation of IKZF3 protein expression in human MM1.R cells at 10 to 50 uM after 48 hrs by immunoblotting analysis; assay type: functional, cell-based; conditions: dose 10-50 µM
MM.1R [35] = experiment: Down regulation of IKZF1 protein expression in human MM1.R cells at 10 to 50 uM after 48 hrs by immunoblotting analysis; assay type: functional, cell-based; conditions: dose 10-50 µM
KMM-1 [36] = experiment: as §1; assay type: functional
[37] = Induction of apoptosis in human KMM-1 cells assessed as increase in cleaved caspace-3 expression at 50 uM after 48 hrs by immunoblotting analysis; assay type: functional
KMM-1 [38] = experiment: Down regulation of cyclin D3 expression in human KMM-1 cells after 48 hrs by immunoblotting analysis; assay type: functional, cell-based; conditions: dose 5-50 µM
KMM-1 [39] = experiment: Down regulation of OCT2 protein expression in human KMM-1 cells at 50 uM after 48 hrs by immunoblotting analysis; assay type: functional, cell-based
KMM-1 [40] = experiment: Down regulation of Bob-1 protein expression in human KMM-1 cells at 50 uM after 48 hrs by immunoblotting analysis; assay type: functional, cell-based
JJN-3 [41] = experiment: Down regulation of IRF4 protein expression in human JJN-3 cells at 50 uM after 48 hrs by immunoblotting analysis; assay type: functional, cell-based
JJN-3 [42] = experiment: Down regulation of IKZF1 protein expression in human JJN-3 cells at 50 uM after 48 hrs by immunoblotting analysis; assay type: functional, cell-based
MM.1R [43] = experiment: Down regulation of SP1 protein expression in human MM1.R cells at 25 uM after 48 hrs by immunoblotting analysis; assay type: functional, cell-based
JJN-3 [44] = experiment: Down regulation of SP1 protein expression in human JJN-3 cells at 25 uM after 48 hrs by immunoblotting analysis; assay type: functional, cell-based
MM.1R [45] = experiment: Induction of apoptosis in human MM1.R cells at 10 uM after 48 hrs by Annexin V/Propidium Iodide flow cytometric analysis; assay type: functional, cell-based
KMM-1 [46] = experiment: Down regulation of cyclin D3 expression in human KMM-1 cells at 5 to 50 uM after 48 hrs by immunoblotting analysis; assay type: functional, cell-based; conditions: dose 5-50 µM
[47] = Potency index, ratio of lenalidomide IC50 to test compound IC50 for growth inhibition of human KMM-1 cells; assay type: functional
MM.1R [48] = experiment: Induction of apoptosis in human MM1.R cells assessed as increase in cleaved caspace-8 protein expression at 10 uM after 48 hrs by immunoblotting analysis; assay type: functional, cell-based
MM.1R [49] = experiment: Down regulation of MYC protein expression in human MM1.R cells at 10 uM after 48 hrs by immunoblotting analysis; assay type: functional, cell-based

Compound: O=C(/C=C/c1ccc(O)c(O)c1)OCCc1ccccc1 [CAFFEIC ACID PHENETHYL ESTER]
- growth inhibition (GI) (KMM-1 [1]): Active
- inhibition of growth at 25 µM [2]: 38.7%
- inhibition of growth at 50 µM [3]: 59%
- growth inhibition (GI) (KMM-1 [4]): Active
- growth inhibition (GI) (KMM-1 [5]): Active
- IC50 (A549): 80 µM
- IC50 (IMR-32): 5 µM
- Activity [6]: Non-Toxic
- Activity (B cell [7]): Non-Toxic
- viability at 10 µM [8]: 71%
- Activity [9]: 3%
- Activity [10]: 9%
- Activity [11]: 17%
- viability at 25 µM [12]: 51%
- Activity [13]: 4%
- Activity [14]: 15%
- Activity [15]: 31%
- Activity (KMM-1 [16]): Active
- Activity [17]: 26%
- IC50 [18]: 37.5 µM
- IC50 (JJN-3 [19]): 30 µM
- IC50 [20]: 17.8 µM
- Activity [21]: 25.8%
- Activity [22]: 41%
- Activity (MM.1R [23]): Active
- Activity (JJN-3 [24]): Active
- Activity (MM.1R [25]): Active

Compound: Nc1cccc2c1CN(C1CCC(=O)NC1=O)C2=O (stereo not drawn) [LENALIDOMIDE]
- Activity [26]: Non-Toxic
- Activity (B cell [27]): Non-Toxic
- viability at 10 µM [8]: 78%
- Activity [9]: 4%
- Activity [10]: 6%
- Activity [11]: 12%
- growth inhibition (GI) [28]: >25%
- inhibition of growth at 10 µM [29]: 7.5%
- inhibition of growth at 100 µM [30]: 47%
- Activity [21]: 17.4%
- Activity [22]: 46%
- Activity (JJN-3 [31]): Active
- Activity (JJN-3 [32]): Active
- Activity (MM.1R [33]): inactive
- Activity (MM.1R [34]): inactive
- Activity (MM.1R [35]): Active

Compound: COc1cc(/C=C/C(=O)OCCCc2ccccc2)ccc1O
- growth inhibition (GI) (KMM-1 [36]): inactive

Compound: O=C(/C=C/c1ccc(O)c(O)c1)OCCCc1ccccc1
- inhibition of growth at 25 µM [2]: 58.3%
- inhibition of growth at 50 µM [3]: 80%
- growth inhibition (GI) (KMM-1 [5]): Active
- Activity [6]: Non-Toxic
- Activity (B cell [7]): Non-Toxic
- viability at 10 µM [8]: 55%
- Activity [9]: 4%
- Activity [10]: 14%
- Activity [11]: 27%
- viability at 25 µM [12]: 32%
- Activity [13]: 7%
- Activity [14]: 17.2%
- Activity [15]: 43%
- fold change (FC) [37]: 2.9
- Activity (KMM-1 [38]): Dose-dependent effect
- Activity (KMM-1 [39]): Active
- Activity (KMM-1 [40]): Active
- Activity (KMM-1 [16]): Active
- Activity [17]: 62%
- IC50 [18]: 12 µM
- IC50 (JJN-3 [19]): 6.7 µM
- IC50 [20]: 4.9 µM
- inhibition of growth at 10 µM [29]: 28%
- Activity [21]: 40.4%
- Activity [22]: 30%
- Activity (JJN-3 [41]): Active
- Activity (JJN-3 [42]): Active
- Activity (MM.1R [43]): Active
- Activity (JJN-3 [44]): Active
- Activity (MM.1R [25]): Active
- Activity (MM.1R [45]): Active

Compound: O=C(O)/C=C/c1ccc(O)c(O)c1
- growth inhibition (GI) (KMM-1 [1]): inactive
- Activity (KMM-1 [46]): inactive

Compound: O=C(/C=C/c1ccc(O)c(O)c1)NCCc1ccccc1
- growth inhibition (GI) (KMM-1 [1]): Active
- Activity (KMM-1 [46]): inactive

Compound: Oc1ccc(/C=C/COCCCc2ccccc2)cc1O
- IC50 [18]: 6.6 µM
- IC50 (JJN-3 [19]): 14 µM
- IC50 [20]: 2 µM
- Ratio IC50 [47]: 6.5
- Activity (MM.1R [23]): inactive
- Activity (MM.1R [48]): Active
- Activity (MM.1R [49]): inactive

Compound: O=C(/C=C/c1ccc(O)c(O)c1)OCCC1CCCCC1
- growth inhibition (GI) (KMM-1 [1]): Active
- fold change (FC) [37]: 3.2
